Assay results as given in patent publication US12258328B2, “6-membered heteroaryl-containing aminopyridine compounds as EGFR inhibitors” (YUHAN CORPORATION, priority 2021, dated 2025).
Like-named read-outs stand apart in the source and are kept apart here.

How the values were obtained:
EGFR L858R/T790M/C797S = EGFR L858R/T790M/C797S (Homo sapiens, UniProt P00533, C797S/L858R/T790M); assay: Biochemical EGFR kinase assay (Lance Ultra TR-FRET), triple mutant L858R/T790M/C797S
Procedure, shortened: (§1)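 Enzyme reactions lasted 1 hour at room temperature with test compounds between 0.003 and 10 μM, followed by 10 mM EDTA quench.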

EGFR del19/T790M/C797S = EGFR del19/T790M/C797S (Homo sapiens, UniProt P00533, C797S/DEL746-750/T790M); assay: Biochemical EGFR kinase assay (Lance Ultra TR-FRET), triple mutant del19/T790M/C797S
Procedure, shortened: as §1

EGFR L858R/C797S = EGFR L858R/C797S (Homo sapiens, UniProt P00533, C797S/L858R); assay: Biochemical EGFR kinase assay (Lance Ultra TR-FRET), double mutant L858R/C797S
Procedure, shortened: as §1

EGFR wildtype = EGFR wildtype (Homo sapiens, UniProt P00533); assay: Biochemical EGFR kinase assay (Lance Ultra TR-FRET), wildtype
Procedure, shortened: as §1

EGFR del19/C797S = EGFR del19/C797S (Homo sapiens, UniProt P00533, C797S/DEL746-750); assay: Biochemical EGFR kinase assay (Lance Ultra TR-FRET), double mutant del19/C797S
Procedure, shortened: as §1

[1] = IC50 L858R/T790M/C797S (nM) 100 μM ATP, 100 μM ATP
[2] = Km ATP, read-out: IC50 L858R/T790M/C797S (nM) Km ATP
[3] = IC50 del19/T790M/C797S (nM) 100 μM ATP, 100 μM ATP
[4] = Km ATP, read-out: IC50 del19/T790M/C797S (nM) Km ATP
[5] = IC50 L858R/C797S (nM) 100 μM ATP, 100 μM ATP
[6] = Km ATP, read-out: IC50 L858R/C797S (nM) Km ATP
[7] = IC50 WT (nM) 100 μM ATP, 100 μM ATP
[8] = Km ATP, read-out: IC50 WT (nM) Km ATP
[9] = IC50 del19/C797S (nM) 100 μM ATP, 100 μM ATP
[10] = Km ATP, read-out: IC50 del19/C797S (nM) Km ATP
[11] = ATP at Km, read-out: IC50 L858R/T790M/C797S, Km ATP
[12] = ATP at Km, read-out: IC50 del19/T790M/C797S, Km ATP
[13] = ATP at Km, read-out: IC50 L858R/C797S, Km ATP
[14] = ATP at Km, read-out: IC50 WT, Km ATP
[15] = ATP at Km, read-out: IC50 del19/C797S, Km ATP
[16] = IC50 L858R/T790M/C797S, 100 μM ATP
[17] = IC50 del19/T790M/C797S, 100 μM ATP

Sequence of EGFR wildtype (P00533 25-1210): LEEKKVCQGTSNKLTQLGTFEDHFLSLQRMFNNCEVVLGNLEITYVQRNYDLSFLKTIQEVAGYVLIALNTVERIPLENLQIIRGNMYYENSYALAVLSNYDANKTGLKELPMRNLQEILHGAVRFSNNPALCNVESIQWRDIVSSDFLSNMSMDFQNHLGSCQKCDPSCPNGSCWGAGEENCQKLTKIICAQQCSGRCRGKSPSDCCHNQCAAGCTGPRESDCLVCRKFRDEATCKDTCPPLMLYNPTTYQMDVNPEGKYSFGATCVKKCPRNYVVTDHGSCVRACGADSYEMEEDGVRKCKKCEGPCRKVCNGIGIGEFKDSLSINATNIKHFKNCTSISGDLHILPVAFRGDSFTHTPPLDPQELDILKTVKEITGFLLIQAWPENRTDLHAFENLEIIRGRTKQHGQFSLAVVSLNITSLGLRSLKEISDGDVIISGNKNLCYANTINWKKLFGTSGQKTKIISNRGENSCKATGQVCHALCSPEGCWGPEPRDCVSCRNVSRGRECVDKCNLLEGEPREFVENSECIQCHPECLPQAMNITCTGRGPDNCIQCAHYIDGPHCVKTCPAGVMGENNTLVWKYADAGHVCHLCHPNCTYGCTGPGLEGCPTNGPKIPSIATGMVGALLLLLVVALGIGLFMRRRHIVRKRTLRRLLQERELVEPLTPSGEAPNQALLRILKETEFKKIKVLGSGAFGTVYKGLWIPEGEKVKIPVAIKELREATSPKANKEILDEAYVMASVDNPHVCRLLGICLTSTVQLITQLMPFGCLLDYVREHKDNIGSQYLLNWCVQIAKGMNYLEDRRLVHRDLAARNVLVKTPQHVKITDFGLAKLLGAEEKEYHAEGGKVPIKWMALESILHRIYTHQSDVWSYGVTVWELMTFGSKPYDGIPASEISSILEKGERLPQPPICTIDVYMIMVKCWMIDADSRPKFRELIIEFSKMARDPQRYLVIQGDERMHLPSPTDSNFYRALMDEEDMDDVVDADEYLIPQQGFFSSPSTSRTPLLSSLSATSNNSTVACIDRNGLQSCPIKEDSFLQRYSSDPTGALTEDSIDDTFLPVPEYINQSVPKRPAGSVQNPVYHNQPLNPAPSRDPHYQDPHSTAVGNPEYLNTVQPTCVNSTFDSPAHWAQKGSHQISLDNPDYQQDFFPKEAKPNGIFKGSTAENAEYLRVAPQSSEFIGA
Sequence of EGFR del19/T790M/C797S (P00533 with tags, fused parts or gaps DEL746-750/T790M/C797S): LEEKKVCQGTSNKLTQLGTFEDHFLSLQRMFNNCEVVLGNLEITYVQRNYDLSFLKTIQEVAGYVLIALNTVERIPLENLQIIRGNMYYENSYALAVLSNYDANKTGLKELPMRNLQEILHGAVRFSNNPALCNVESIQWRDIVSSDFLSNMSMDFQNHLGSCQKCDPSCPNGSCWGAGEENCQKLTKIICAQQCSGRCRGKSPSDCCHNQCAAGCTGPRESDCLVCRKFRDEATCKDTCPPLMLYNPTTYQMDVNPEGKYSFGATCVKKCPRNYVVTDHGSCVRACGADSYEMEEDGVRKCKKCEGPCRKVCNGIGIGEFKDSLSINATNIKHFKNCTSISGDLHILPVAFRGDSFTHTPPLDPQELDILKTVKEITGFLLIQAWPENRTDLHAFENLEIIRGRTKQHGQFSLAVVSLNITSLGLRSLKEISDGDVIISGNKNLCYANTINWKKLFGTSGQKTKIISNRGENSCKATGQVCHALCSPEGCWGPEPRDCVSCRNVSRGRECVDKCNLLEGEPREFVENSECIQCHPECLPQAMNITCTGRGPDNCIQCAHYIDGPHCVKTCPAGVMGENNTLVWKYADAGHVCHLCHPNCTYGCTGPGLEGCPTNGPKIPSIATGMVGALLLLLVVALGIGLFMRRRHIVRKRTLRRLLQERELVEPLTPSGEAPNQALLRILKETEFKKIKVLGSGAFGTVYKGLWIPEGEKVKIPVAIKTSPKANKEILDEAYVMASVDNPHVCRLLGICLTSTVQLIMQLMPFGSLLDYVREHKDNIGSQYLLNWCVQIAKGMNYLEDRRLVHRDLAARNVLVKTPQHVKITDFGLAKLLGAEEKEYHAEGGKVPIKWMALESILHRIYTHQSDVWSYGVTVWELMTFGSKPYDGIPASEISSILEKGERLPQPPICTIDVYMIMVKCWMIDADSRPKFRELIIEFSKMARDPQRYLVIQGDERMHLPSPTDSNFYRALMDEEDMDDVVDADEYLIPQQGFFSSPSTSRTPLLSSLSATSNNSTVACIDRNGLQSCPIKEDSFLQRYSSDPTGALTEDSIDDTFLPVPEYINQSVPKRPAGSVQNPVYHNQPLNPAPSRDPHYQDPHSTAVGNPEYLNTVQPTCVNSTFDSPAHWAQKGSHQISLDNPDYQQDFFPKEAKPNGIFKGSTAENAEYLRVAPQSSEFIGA
Sequence of EGFR L858R/C797S (P00533 25-1210 C797S/L858R): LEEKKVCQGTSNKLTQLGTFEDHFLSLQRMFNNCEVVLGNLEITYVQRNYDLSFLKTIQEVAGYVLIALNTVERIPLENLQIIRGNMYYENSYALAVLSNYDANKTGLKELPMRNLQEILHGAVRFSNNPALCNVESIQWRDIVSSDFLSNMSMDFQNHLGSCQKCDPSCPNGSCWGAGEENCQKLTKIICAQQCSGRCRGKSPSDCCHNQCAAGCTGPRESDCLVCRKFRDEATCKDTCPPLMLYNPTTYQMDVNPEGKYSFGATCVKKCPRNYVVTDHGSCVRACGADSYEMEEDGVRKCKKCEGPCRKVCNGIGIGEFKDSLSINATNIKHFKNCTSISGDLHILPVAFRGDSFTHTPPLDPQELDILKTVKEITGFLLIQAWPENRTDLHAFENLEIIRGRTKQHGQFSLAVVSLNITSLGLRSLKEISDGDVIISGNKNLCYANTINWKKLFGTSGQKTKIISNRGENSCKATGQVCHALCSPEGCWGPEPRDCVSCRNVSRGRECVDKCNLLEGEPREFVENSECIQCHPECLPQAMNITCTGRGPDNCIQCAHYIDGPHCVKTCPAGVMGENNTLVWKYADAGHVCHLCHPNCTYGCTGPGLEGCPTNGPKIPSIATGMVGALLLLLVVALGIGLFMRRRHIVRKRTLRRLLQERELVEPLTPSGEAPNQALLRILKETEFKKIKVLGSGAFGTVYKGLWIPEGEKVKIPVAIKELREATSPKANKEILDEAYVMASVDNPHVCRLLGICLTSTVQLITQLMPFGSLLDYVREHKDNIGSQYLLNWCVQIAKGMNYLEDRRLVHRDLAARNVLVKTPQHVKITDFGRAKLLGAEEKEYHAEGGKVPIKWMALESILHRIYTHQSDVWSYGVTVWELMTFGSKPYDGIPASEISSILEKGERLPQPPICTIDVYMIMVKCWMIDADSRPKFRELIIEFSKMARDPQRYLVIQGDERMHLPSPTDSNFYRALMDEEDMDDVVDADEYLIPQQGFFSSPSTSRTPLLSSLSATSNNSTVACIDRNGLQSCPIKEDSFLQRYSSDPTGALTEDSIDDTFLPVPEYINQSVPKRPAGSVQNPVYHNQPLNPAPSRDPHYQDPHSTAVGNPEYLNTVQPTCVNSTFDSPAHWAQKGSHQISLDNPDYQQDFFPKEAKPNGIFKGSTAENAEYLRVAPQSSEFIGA
Sequence of EGFR del19/C797S (P00533 with tags, fused parts or gaps DEL746-750/C797S): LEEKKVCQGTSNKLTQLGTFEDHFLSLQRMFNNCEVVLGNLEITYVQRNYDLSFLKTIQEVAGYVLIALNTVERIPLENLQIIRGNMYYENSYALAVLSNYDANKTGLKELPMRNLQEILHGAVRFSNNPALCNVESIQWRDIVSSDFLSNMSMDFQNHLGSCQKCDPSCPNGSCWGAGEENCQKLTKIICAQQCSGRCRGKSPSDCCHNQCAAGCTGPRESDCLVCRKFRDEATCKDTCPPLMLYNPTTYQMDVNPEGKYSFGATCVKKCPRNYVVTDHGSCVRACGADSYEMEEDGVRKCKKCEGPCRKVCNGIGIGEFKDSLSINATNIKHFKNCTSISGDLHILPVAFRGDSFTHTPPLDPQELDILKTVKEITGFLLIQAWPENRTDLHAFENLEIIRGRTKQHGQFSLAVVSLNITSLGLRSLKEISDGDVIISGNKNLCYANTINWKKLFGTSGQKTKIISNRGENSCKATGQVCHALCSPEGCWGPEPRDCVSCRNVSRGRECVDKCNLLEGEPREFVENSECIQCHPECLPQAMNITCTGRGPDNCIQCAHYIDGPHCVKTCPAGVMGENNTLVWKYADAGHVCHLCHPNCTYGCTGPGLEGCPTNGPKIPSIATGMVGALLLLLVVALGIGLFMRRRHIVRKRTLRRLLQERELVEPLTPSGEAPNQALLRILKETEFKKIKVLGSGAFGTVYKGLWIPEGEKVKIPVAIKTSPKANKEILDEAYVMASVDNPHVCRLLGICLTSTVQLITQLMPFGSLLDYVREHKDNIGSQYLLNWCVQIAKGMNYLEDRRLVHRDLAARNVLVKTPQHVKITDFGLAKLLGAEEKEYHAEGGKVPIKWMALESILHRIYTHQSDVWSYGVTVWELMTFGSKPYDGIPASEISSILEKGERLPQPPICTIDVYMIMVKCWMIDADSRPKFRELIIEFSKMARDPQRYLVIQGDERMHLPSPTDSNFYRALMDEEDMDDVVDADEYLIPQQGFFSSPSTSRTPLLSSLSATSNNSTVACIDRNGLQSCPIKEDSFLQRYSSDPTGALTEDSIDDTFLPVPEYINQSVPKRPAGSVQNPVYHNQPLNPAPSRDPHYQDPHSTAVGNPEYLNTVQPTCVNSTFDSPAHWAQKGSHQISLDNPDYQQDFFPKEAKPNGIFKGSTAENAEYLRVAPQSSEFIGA

| SMILES | IC50 (EGFR L858R/T790M/C797S; [1]) | IC50 (EGFR L858R/T790M/C797S; [2]) | IC50 (EGFR del19/T790M/C797S; [3]) | IC50 (EGFR del19/T790M/C797S; [4]) | IC50 (EGFR L858R/C797S; [5]) | IC50 (EGFR L858R/C797S; [6]) | IC50 (EGFR wildtype; [7]) | IC50 (EGFR wildtype; [8]) | IC50 (EGFR del19/C797S; [9]) | IC50 (EGFR del19/C797S; [10]) | IC50 (EGFR L858R/T790M/C797S; [11]) | IC50 (EGFR del19/T790M/C797S; [12]) | IC50 (EGFR L858R/C797S; [13]) | IC50 (EGFR wildtype; [14]) | IC50 (EGFR del19/C797S; [15]) | IC50 (EGFR L858R/T790M/C797S; [16]) | IC50 (EGFR del19/T790M/C797S; [17]) | IC50 (EGFR L858R/C797S; IC50 L858R/C797S, 100 μM ATP) | IC50 (EGFR wildtype; IC50 WT, 100 μM ATP) | IC50 (EGFR del19/C797S; IC50 del19/C797S, 100 μM ATP) |
| --- | --- | --- | --- | --- | --- | --- | --- | --- | --- | --- | --- | --- | --- | --- | --- | --- | --- | --- | --- | --- |
| CC(C)(O)[C@H]1CC[C@@H](Nc2cc(Nc3ccnc(-c4cnn(S(=O)(=O)C5CC5)c4)n3)ncc2-c2ccc(CN3CCOCC3)cn2)CC1 [Example 25, 2-((1s,4s)-4-((6′-((2-(1-(Cyclopropylsulfonyl)-1H-pyrazol-4-yl)pyrimidin-4-yl)amino)-5-(morpholinomethyl)-[2,3′-bipyridin]-4′-yl)amino)cyclohexyl)propan-2-ol] | 1.2 nM | 0.8 nM | 1.1 nM | 1 nM | 2 nM | 0.3 nM | 1830 nM | 1.9 nM | 0.5 nM | 0.5 nM | – | – | – | – | – | – | – | – | – | – |
| CC(C)(O)[C@H]1CC[C@@H](Nc2cc(Nc3ccnc(-c4cnn(S(=O)(=O)C5CC5)c4)n3)ncc2-c2ccc(N3CCC(F)(F)CC3)nn2)CC1 [Example 71, 2-((1s,4s)-4-((2-((2-(1-(Cyclopropylsulfonyl)-1H-pyrazol-4-yl)pyrimidin-4-yl)amino)-5-(6-(4,4-difluoropiperidin-1-yl)pyridazin-3-yl)pyridin-4-yl)amino)cyclohexyl)propan-2-ol] | 4.1 nM | – | 4.5 nM | – | 355 nM | – | > 10000 nM | – | 44.2 nM | – | – | – | – | – | – | – | – | – | – | – |
| CN(C)Cc1ccc(-c2cnc(Nc3ccnc(-c4cnn(S(=O)(=O)C5CC5)c4)n3)cc2N[C@H]2CC[C@@H](C(C)(C)O)CC2)nc1 [Example 26, 2-((1s,4s)-4-((6′-((2-(1-(Cyclopropylsulfonyl)-1H-pyrazol-4-yl)pyrimidin-4-yl)amino)-5-((dimethylamino)methyl)-[2,3′-bipyridin]-4′-yl)amino)cyclohexyl)propan-2-ol] | 0.4 nM | 0.2 nM | 0.4 nM | 0.4 nM | 0.7 nM | 0.1 nM | 107 nM | 0.9 nM | 0.2 nM | 0.2 nM | – | – | – | – | – | – | – | – | – | – |
| CC(C)(O)[C@H]1CC[C@@H](Nc2cc(Nc3ccnc(-c4cnn(S(=O)(=O)C5CC5)c4)n3)ncc2-c2ccc(OCCN3CCC3)cn2)CC1 [Example 217, 2-((1s,4s)-4-((5-(2-(Azetidin-1-yl)ethoxy)-6′-((2-(1-(cyclopropylsulfonyl)-1H-pyrazol-4-yl)pyrimidin-4-yl)amino)-[2,3′-bipyridin]-4′-yl)amino)cyclohexyl)propan-2-ol] | – | – | – | – | – | – | – | – | – | – | 0.3 nM | 0.8 nM | 0.2 nM | 0.8 nM | 0.2 nM | 0.3 nM | 0.7 nM | 0.4 nM | 118 nM | 0.3 nM |

More lines, now with the values ahead:

| IC50 (EGFR L858R/T790M/C797S; [1]) | IC50 (EGFR L858R/T790M/C797S; [2]) | IC50 (EGFR del19/T790M/C797S; [3]) | IC50 (EGFR del19/T790M/C797S; [4]) | IC50 (EGFR L858R/C797S; [5]) | IC50 (EGFR L858R/C797S; [6]) | IC50 (EGFR wildtype; [7]) | IC50 (EGFR wildtype; [8]) | IC50 (EGFR del19/C797S; [9]) | IC50 (EGFR del19/C797S; [10]) | IC50 (EGFR L858R/T790M/C797S; [11]) | IC50 (EGFR del19/T790M/C797S; [12]) | IC50 (EGFR L858R/C797S; [13]) | IC50 (EGFR wildtype; [14]) | IC50 (EGFR del19/C797S; [15]) | IC50 (EGFR L858R/T790M/C797S; [16]) | IC50 (EGFR del19/T790M/C797S; [17]) | IC50 (EGFR L858R/C797S; IC50 L858R/C797S, 100 μM ATP) | IC50 (EGFR wildtype; IC50 WT, 100 μM ATP) | IC50 (EGFR del19/C797S; IC50 del19/C797S, 100 μM ATP) | SMILES |
| --- | --- | --- | --- | --- | --- | --- | --- | --- | --- | --- | --- | --- | --- | --- | --- | --- | --- | --- | --- | --- |
| – | – | – | – | – | – | – | – | – | – | 4.1 nM | 6.9 nM | 8.8 nM | 7.8 nM | 10.7 nM | – | – | – | – | – | COC(c1ccc(-c2cnc(Nc3ccnc(-c4cnn(S(=O)(=O)C5CC5)c4)n3)cc2NC2CCC(C)(O)CC2)nc1)C(F)(F)F (stereo not drawn) [Example 260, (1s,4s)-4-((6′-((2-(1-(Cyclopropylsulfonyl)-1H-pyrazol-4-yl)pyrimidin-4-yl)amino)-5-(2,2,2-trifluoro-1-methoxyethyl)-[2,3′-bipyridin]-4′-yl)amino)-1-methylcyclohexan-1-ol] |
| – | 0.1 nM | – | 0.2 nM | – | 0.4 nM | – | 6.2 nM | – | 0.5 nM | – | – | – | – | – | – | – | – | – | – | C[C@]1(O)CC[C@@H](Nc2cc(Nc3ccnc(-c4cnn(S(=O)(=O)C5CC5)c4)n3)ncc2-c2cnc(OC3COC3)cn2)CC1 [Example 150, (1s,4s)-4-((2-((2-(1-(Cyclopropylsulfonyl)-1H-pyrazol-4-yl)pyrimidin-4-yl)amino)-5-(5-(oxetan-3-yloxy)pyrazin-2-yl)pyridin-4-yl)amino)-1-methylcyclohexan-1-ol] |
| – | – | – | – | – | – | – | – | – | – | – | 2 nM | 3 nM | 111 nM | 6.7 nM | 1.9 nM | 8.3 nM | 32.1 nM | > 10000 nM | 20.3 nM | C[C@]1(O)CC[C@@H](Nc2cc(Nc3ccnc(-c4cnn(S(=O)(=O)C5CC5)c4)n3)ncc2-c2cnc(F)cn2)CC1 [Example 185, (1s,4s)-4-((2-((2-(1-(Cyclopropylsulfonyl)-1H-pyrazol-4-yl)pyrimidin-4-yl)amino)-5-(5-fluoropyrazin-2-yl)pyridin-4-yl)amino)-1-methylcyclohexan-1-ol] |
